Results: patent US12139520B2 (priority 2020, dated 2024)
Bridge positions count the residues as written; N and C are the ends. Square brackets hold non-standard residues; d marks the D form. Peptide text beside a SMILES is read from it. Hyp = O=C(O)[C@@H]1C[C@@H](O)CN1

Legend:
[1] = Physical stability of peptide analogues (Thioflavin T fibrillation); assay type: physicochemical; details: maximum ThT signal normalized between hAMY maximum and buffer background; 40° C., shaking, four days; pH 7 per table title
Method in brief: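 ThT fluorescence (450 nm excitation, 480 nm emission; 4 μM dye) was read every 10 min over four days at 40° C under 700 rpm shaking stress, after 1 h in pH 4 acetate or pH 7 phosphate (50 mM). Peak smoothed signal expressed as percent, scaled between buffer background and hAMY maximum.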

[2] = target: T1, hAMY3 receptor (Homo sapiens, UniProt O60896+P30988); assay: cAMP assay for in vitro receptor activation, hAMY3-R; assay type: cell-based; details: cAMP assay, hAMY3 receptor; read-out: hAMY3R EC50
T1 sequence (P30988 25-474): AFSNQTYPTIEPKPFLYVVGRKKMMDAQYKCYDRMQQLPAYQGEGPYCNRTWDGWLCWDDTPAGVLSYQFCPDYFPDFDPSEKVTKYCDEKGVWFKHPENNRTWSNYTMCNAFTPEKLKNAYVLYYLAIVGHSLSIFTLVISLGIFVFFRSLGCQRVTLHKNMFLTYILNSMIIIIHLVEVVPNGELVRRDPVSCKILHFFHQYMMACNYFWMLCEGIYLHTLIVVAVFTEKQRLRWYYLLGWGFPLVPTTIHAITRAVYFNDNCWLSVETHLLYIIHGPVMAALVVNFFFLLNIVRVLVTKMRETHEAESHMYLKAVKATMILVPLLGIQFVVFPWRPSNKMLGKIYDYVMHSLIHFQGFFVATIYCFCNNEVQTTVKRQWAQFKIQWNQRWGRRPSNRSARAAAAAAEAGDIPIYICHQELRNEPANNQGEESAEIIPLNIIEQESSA
T1 sequence (O60896 24-148 partner): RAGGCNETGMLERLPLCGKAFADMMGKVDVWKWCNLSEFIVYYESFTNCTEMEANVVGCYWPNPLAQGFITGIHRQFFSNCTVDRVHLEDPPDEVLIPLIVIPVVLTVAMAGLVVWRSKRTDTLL
Method in brief: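 Read-out is TR-FRET cAMP signal, recorded one hour after reagent addition, following 30 min room-temperature stimulation of stable hAMY3 cells with graded compound doses in casein/IBMX (0.5 mM) buffer.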

[3] = target: hAM1 receptor (Homo sapiens, UniProt O60895+Q16602); assay: cAMP assay for in vitro receptor activation, hAM1-R; assay type: cell-based; details: cAMP assay, hAM1 receptor; read-out: hAM1R EC50
hAM1 receptor, sequence (Q16602 23-461): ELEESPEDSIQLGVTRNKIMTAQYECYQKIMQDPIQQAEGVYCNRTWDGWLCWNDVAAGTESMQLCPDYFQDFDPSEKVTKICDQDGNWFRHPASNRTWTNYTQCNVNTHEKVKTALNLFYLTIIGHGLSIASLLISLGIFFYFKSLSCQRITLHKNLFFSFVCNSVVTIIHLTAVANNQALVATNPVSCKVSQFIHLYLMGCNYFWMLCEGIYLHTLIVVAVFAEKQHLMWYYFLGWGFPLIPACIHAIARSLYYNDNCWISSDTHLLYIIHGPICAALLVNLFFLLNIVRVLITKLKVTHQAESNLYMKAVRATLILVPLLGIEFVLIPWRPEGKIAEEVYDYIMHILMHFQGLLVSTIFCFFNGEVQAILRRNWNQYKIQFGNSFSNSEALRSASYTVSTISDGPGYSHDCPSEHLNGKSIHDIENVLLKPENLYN
hAM1 receptor, sequence (O60895 43-175 partner): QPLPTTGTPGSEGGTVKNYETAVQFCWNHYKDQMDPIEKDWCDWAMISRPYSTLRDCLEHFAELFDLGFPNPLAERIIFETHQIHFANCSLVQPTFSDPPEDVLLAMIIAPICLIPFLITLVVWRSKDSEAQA
Method in brief: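 Monoclonal stable hAM1-overexpressing cells, thawed from frozen stock; 8000 cells/well in DPBS + 0.05% casein + 0.5 mM IBMX; read-out cAMP.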

Row | SMILES | Max ThT signal (%) [1] | EC50 [2] | EC50 [3]
1 | CC[C@H](C)[C@H](NC(=O)[C@H](CCC(N)=O)NC(=O)[C@H](Cc1c[nH]cn1)NC(=O)[C@H](C)NC(=O)[C@H](CC(C)C)NC(=O)[C@H](CCCNC(=N)N)NC(=O)[C@H](CCC(N)=O)NC(=O)[C@@H](NC(=O)[C@@H](NC(=O)[C@@H]1CSSC[C@H](NC(=O)CN)C(=O)N[C@@H](CCCNC(=N)N)C(=O)N[C@@H](Cc2ccccc2)C(=O)NCC(=O)N[C@@H]([C@@H](C)O)C(=O)N1)[C@@H](C)O)C(C)C)C(=O)N[C@@H](Cc1ccc(O)cc1)C(=O)N[C@@H](CCC(N)=O)C(=O)N[C@@H](Cc1ccccc1)C(=O)N[C@H](C(=O)N[C@@H](CC(=O)O)C(=O)N[C@@H](CCCCN)C(=O)N[C@@H](CC(=O)O)C(=O)N[C@@H](CCCCN)C(=O)N[C@@H](CC(=O)O)C(=O)N[C@@H](CC(N)=O)C(=O)N[C@H](C(=O)N[C@@H](C)C(=O)N1CCC[C@H]1C(=O)N[C@@H](CCCNC(=N)N)C(=O)N[C@@H](CO)C(=O)N[C@@H](CC(N)=O)C(=O)N[C@H](C(=O)NCC(=O)N1CCC[C@H]1C(=O)N[C@@H](CCC(N)=O)C(=O)NCC(=O)N[C@@H](Cc1ccc(O)cc1)C(N)=O)C(C)C)C(C)C)[C@@H](C)O [compound 374] (H-GCRFGTCTVQRLAHQIYQFTDKDKDNVAPRSNVGPQGY-NH2; disulfide 2-7; N-terminus assumed) | 4.800% | 0.021 nM | 12 nM
2 | CC[C@H](C)[C@H](NC(=O)[C@H](CCC(N)=O)NC(=O)[C@H](Cc1c[nH]cn1)NC(=O)[C@H](C)NC(=O)[C@H](CC(C)C)NC(=O)[C@H](CCCNC(=N)N)NC(=O)[C@H](CCC(N)=O)NC(=O)[C@@H](NC(=O)[C@@H](NC(=O)[C@@H]1CSSC[C@H](NC(=O)CN)C(=O)N[C@@H](CCCNC(=N)N)C(=O)N[C@@H]([C@@H](C)O)C(=O)NCC(=O)N[C@@H]([C@@H](C)O)C(=O)N1)[C@@H](C)O)C(C)C)C(=O)N[C@@H](Cc1c[nH]c2ccccc12)C(=O)N[C@@H](CCC(N)=O)C(=O)N[C@@H](Cc1ccccc1)C(=O)N[C@H](C(=O)N[C@@H](CC(=O)O)C(=O)N[C@@H](CCCCN)C(=O)N[C@@H](Cc1ccccc1)C(=O)N[C@@H](CCCCN)C(=O)N[C@@H](CC(=O)O)C(=O)N[C@@H](CC(N)=O)C(=O)N[C@H](C(=O)N[C@@H](C)C(=O)N1CCC[C@H]1C(=O)N[C@@H](CCCNC(=N)N)C(=O)N[C@@H](CO)C(=O)N[C@@H](CCCCN)C(=O)N[C@H](C(=O)N[C@@H](CO)C(=O)N1CCC[C@H]1C(=O)N[C@@H](CCC(N)=O)C(=O)N[C@H](C(=O)N1C[C@H](O)C[C@H]1C(N)=O)[C@@H](C)O)[C@@H](C)CC)C(C)C)[C@@H](C)O [compound 213] (H-GCRTGTCTVQRLAHQIWQFTDKFKDNVAPRSKISPQT[Hyp]-NH2; disulfide 2-7) | 6.500% | 0.153 nM | > 5000 nM
3 | CC[C@H](C)[C@H](NC(=O)[C@H](CCC(N)=O)NC(=O)[C@H](Cc1c[nH]cn1)NC(=O)[C@H](C)NC(=O)[C@H](CC(C)C)NC(=O)[C@H](CCCNC(=N)N)NC(=O)[C@H](CCC(N)=O)NC(=O)[C@@H](NC(=O)[C@@H](NC(=O)[C@@H]1CSSC[C@H](NC(=O)CN)C(=O)N[C@@H](CCCNC(=N)N)C(=O)N[C@@H](Cc2c[nH]c3ccccc23)C(=O)NCC(=O)N[C@@H]([C@@H](C)O)C(=O)N1)[C@@H](C)O)C(C)C)C(=O)N[C@@H](Cc1ccc(O)cc1)C(=O)N[C@@H](CCC(N)=O)C(=O)N[C@@H](Cc1ccccc1)C(=O)N[C@H](C(=O)N[C@@H](CC(=O)O)C(=O)N[C@@H](CCCCN)C(=O)N[C@@H](CC(=O)O)C(=O)N[C@@H](CCCCN)C(=O)N[C@@H](CC(=O)O)C(=O)N[C@@H](CC(N)=O)C(=O)N[C@H](C(=O)N[C@@H](C)C(=O)N1CCC[C@H]1C(=O)N[C@@H](CCCNC(=N)N)C(=O)N[C@@H](CO)C(=O)N[C@@H](CCCCN)C(=O)N[C@H](C(=O)N[C@@H](CO)C(=O)N1CCC[C@H]1C(=O)N[C@@H](CCC(N)=O)C(=O)N[C@H](C(=O)N1C[C@H](O)C[C@H]1C(N)=O)[C@@H](C)O)[C@@H](C)CC)C(C)C)[C@@H](C)O [compound 150] (H-GCRWGTCTVQRLAHQIYQFTDKDKDNVAPRSKISPQT[Hyp]-NH2; disulfide 2-7; N-terminus assumed) | 18.200% | 0.04 nM | > 5000 nM

These reach a lower EC50 [2]. Values come first.

Row | Max ThT signal (%) [1] | EC50 [2] | EC50 [3] | SMILES
4 | 20.450% | 0.012 nM | > 5000 nM | CC[C@H](C)[C@H](NC(=O)[C@H](CCC(N)=O)NC(=O)[C@H](Cc1c[nH]cn1)NC(=O)[C@H](C)NC(=O)[C@H](CC(C)C)NC(=O)[C@H](Cc1c[nH]c2ccccc12)NC(=O)[C@H](CCC(N)=O)NC(=O)[C@@H](NC(=O)[C@@H](NC(=O)[C@@H]1CSSC[C@H](NC(=O)[C@@H](N)CCCCN)C(=O)N[C@@H](CC(N)=O)C(=O)N[C@@H]([C@@H](C)O)C(=O)N[C@@H](C)C(=O)N[C@@H]([C@@H](C)O)C(=O)N1)[C@@H](C)O)C(C)C)C(=O)N[C@@H](Cc1ccc(O)cc1)C(=O)N[C@@H](CCC(N)=O)C(=O)N[C@@H](Cc1ccccc1)C(=O)N[C@H](C(=O)N[C@@H](CC(=O)O)C(=O)N[C@@H](CCCCN)C(=O)N[C@@H](CC(=O)O)C(=O)N[C@@H](CCCCN)C(=O)N[C@@H](CC(=O)O)C(=O)N[C@@H](CC(N)=O)C(=O)N[C@H](C(=O)N[C@@H](C)C(=O)N1CCC[C@H]1C(=O)N[C@@H](C)C(=O)N[C@H](C(=O)N[C@@H](CC(N)=O)C(=O)N[C@H](C(=O)NCC(=O)N[C@@H](CO)C(=O)N[C@@H](CC(N)=O)C(=O)NCC(=O)N1C[C@H](O)C[C@H]1C(N)=O)C(C)C)[C@@H](C)O)C(C)C)[C@@H](C)O [compound 316] (H-KCNTATCTVQWLAHQIYQFTDKDKDNVAPATNVGSNG[Hyp]-NH2; disulfide 2-7)
5 | 33.250% | 0.01 nM | > 5000 nM | CC[C@H](C)[C@H](NC(=O)[C@H](CCC(N)=O)NC(=O)[C@H](Cc1c[nH]cn1)NC(=O)[C@H](C)NC(=O)[C@H](CC(C)C)NC(=O)[C@H](Cc1c[nH]c2ccccc12)NC(=O)[C@H](CCC(N)=O)NC(=O)[C@@H](NC(=O)[C@@H](NC(=O)[C@@H]1CSSC[C@H](NC(=O)[C@@H](N)CCCCN)C(=O)N[C@@H](CC(N)=O)C(=O)N[C@@H]([C@@H](C)O)C(=O)N[C@@H](C)C(=O)N[C@@H]([C@@H](C)O)C(=O)N1)[C@@H](C)O)C(C)C)C(=O)N[C@@H](Cc1ccc(O)cc1)C(=O)N[C@@H](CCC(N)=O)C(=O)N[C@@H](Cc1ccccc1)C(=O)N[C@H](C(=O)N[C@@H](CC(=O)O)C(=O)N[C@@H](C)C(=O)N[C@@H](CC(=O)O)C(=O)N[C@@H](CCCCN)C(=O)N[C@@H](CC(=O)O)C(=O)N[C@@H](CC(N)=O)C(=O)N[C@H](C(=O)N[C@@H](C)C(=O)N1CCC[C@H]1C(=O)N1CCC[C@H]1C(=O)N[C@H](C(=O)N[C@@H](CC(N)=O)C(=O)N[C@H](C(=O)NCC(=O)N[C@@H](CO)C(=O)N[C@@H](CC(N)=O)C(=O)NCC(=O)N1C[C@H](O)C[C@H]1C(N)=O)C(C)C)[C@@H](C)O)C(C)C)[C@@H](C)O [compound 328] (H-KCNTATCTVQWLAHQIYQFTDADKDNVAPPTNVGSNG[Hyp]-NH2; disulfide 2-7; N-terminus assumed)
